Values quoted from earlier work in patent US12552830B2, “Steroidal compound derivatives as therapeutic agents” (priority 2020, dated 2026).
“Also recorded” adds a separate entry of the source.

Assays:
[1] = system: transactivator of transcription (Tat)
HIV = conditions: latent CD4+T cells, in vitro
[2] = system: human umbilical endothelial cell (HUVEC)

Compound | inhibition of Tat [1] | viral reactivation of HIV (HIV) | IC50 ([2]; HUVECs, read-out: IC50, selective anti-proliferative activity of HUVECs) [nM] | selectivity for HUVECs over other cell lines ([2]; over NHDF, KB3-1, K562 and Neuro2A cells) [fold]
CN(C)[C@H]1C[C@@]23CC[C@@]4(O2)C(=CC[C@]2(C)C(c5ccc6ccncc6c5)=CCC24)C=C3[C@@H](O)[C@@H]1O (stereo partly shown) [dCA, didehydro-cortistatin A] | most potent inhibitor of transactivator of transcription (Tat) | prevents viral reactivation of HIV in vitro; also recorded: prevents viral reactivation in latent CD4+T cells in vitro | – | –
cortistatin A | – | – | 1.8 | 3000
